Experimental data: EP4707280A1, “1,4-CINEOLE DERIVATIVE AND INTERMEDIATE THEREOF, HERBICIDE CONTAINING SAID DERIVATIVE AS ACTIVE INGREDIENT, METHOD FOR USING HERBICIDE, AND METHOD FOR PREPARING AGROCHEMICAL COMPOSITION” (HOKKO CHEMICAL INDUSTRY CO., LTD., priority 2023, dated 2024)

What was measured:
Format in all cases: in vivo
[1] = tested on: Echinochloa crus-galli var. formosensis; assay: Test Example 1: herbicidal effect test by soil application in paddy rice; details: Echinochloa crus-galli, soil, 336 h; 120 g active ingredient per 10 ares; applied immediately after sowing, flooded pots; 14 days after application; read-out: weed inhibition rate
Outline: (§1)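 Paddy soil in Wagner pots (1/10,000 acre), fertilized and puddled; 30 seeds per species sown at 0–1 cm, flooded to ~3 cm, greenhouse. Water-diluted emulsifiable concentrate dropped onto flooded pots right after sowing at 120 g active ingredient per 10 ares.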

[2] = tested on: Scirpus juncoides; assay: as above; details: Schoenoplectiella juncoides, soil, 336 h; 120 g active ingredient per 10 ares; applied immediately after sowing, flooded pots; 14 days after application; read-out: weed inhibition rate
Outline: as §1

[3] = tested on: Monochoria vaginalis; assay: as above; details: Pontederia vaginalis, soil, 336 h; 120 g active ingredient per 10 ares; applied immediately after sowing, flooded pots; 14 days after application; read-out: weed inhibition rate
Outline: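 Pre-emergence test in puddled, flooded paddy soil (about 3 cm water), 30 seeds per weed sown at 0–1 cm depth in a glass greenhouse. Emulsifiable concentrate diluted in water and dropped onto the pots straight after sowing at 120 g a.i. per 10 ares. Weed inhibition (%) scored at 14 days, in duplicate.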

[4] = tested on: Echinochloa crus-galli var. formosensis; assay: Test Example 2: herbicidal effect test by application during growth period of paddy rice; details: Echinochloa crus-galli; 120 g per 10 ares; applied seven days after sowing, flooded pots; 14 days after application; read-out: weed inhibition rate
Outline: (§2)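 Greenhouse pots of flooded paddy soil, seeded shallowly with 30 seeds per weed, are treated on day 7 by dropper with diluted emulsifiable concentrate equal to 120 g a.i./10 a. Duplicate pots are scored for inhibition rate 14 days post-application.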

[5] = tested on: Monochoria vaginalis; assay: as above; details: Pontederia vaginalis; 120 g per 10 ares; applied seven days after sowing, flooded pots; 14 days after application; read-out: weed inhibition rate
Outline: as §2

[6] = tested on: Scirpus juncoides; assay: as above; details: Schoenoplectiella juncoides; 120 g per 10 ares; applied seven days after sowing, flooded pots; 14 days after application; read-out: weed inhibition rate
Outline: as §2

[7] = tested on: Echinochloa crus-galli; assay: Test Example 4: herbicidal effect test by stem and leaf treatment in upland field; details: Echinochloa crus-galli; 120 g per 10 ares; sprayed seven days after sowing, upland soil; 14 days after application; read-out: weed inhibition rate
[8] = tested on: Echinochloa crus-galli var. formosensis; assay: Test Example 5: herbicidal effect test by soil application in paddy rice (low dose); details: Echinochloa crus-galli, soil, 336 h; 7.5 g per 10 ares; applied immediately after sowing, flooded pots; 14 days after application; read-out: weed inhibition rate
Outline: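 7.5 g a.i./10 a applied by dropper into ~3 cm floodwater immediately post-sowing (seeds 0–1 cm, 30 per species; puddled fertilized paddy soil, glasshouse). Duplicates; day-14 inhibition %.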

[9] = tested on: Digitaria ciliaris; assay: Test Example 8: herbicidal effect test by stem and leaf treatment in upland field (low dose); details: Digitaria ciliaris; 7.5 g per 10 ares; sprayed seven days after sowing, upland soil; 14 days after application; read-out: weed inhibition rate
[10] = tested on: Echinochloa crus-galli; assay: as above; details: Echinochloa crus-galli; 7.5 g per 10 ares; sprayed seven days after sowing, upland soil; 14 days after application; read-out: weed inhibition rate

CC(C)[C@]12C[C@@H](OCc3ccccc3C#N)[C@](C)(C[C@@H]1Br)O2 [1-703, 2-[[(1S,2R,4R,5S)-5-bromo-1-methyl-4-isopropyl-7-oxabicyclo[2.2.1]heptan-2-yl]oxymethyl]benzonitrile]
≥ 80%: pest or weed control at 1200 g/ha [1] | pest or weed control at 1200 g/ha [2] | pest or weed control at 1200 g/ha [3] | inhibition at 1200 g/ha [4] | inhibition at 1200 g/ha [5] | inhibition at 1200 g/ha [6] | inhibition at 1200 g/ha [7] | inhibition at 75 g/ha [8] | inhibition at 75 g/ha [9]

CC(C)[C@]12C[C@@H](OCc3c(F)cccc3Br)[C@](C)(C[C@@H]1Br)O2 [1-1600, (1S,2R,4R,5S)-5-bromo-2-[(2-bromo-6-fluorophenyl)methoxy]-1-methyl-4-isopropyl-7-oxabicyclo[2.2.1]heptane]
≥ 80%: pest or weed control at 1200 g/ha [1] | pest or weed control at 1200 g/ha [2] | pest or weed control at 1200 g/ha [3] | inhibition at 1200 g/ha [4] | inhibition at 1200 g/ha [5] | inhibition at 1200 g/ha [6] | inhibition at 1200 g/ha [7] | inhibition at 75 g/ha [8] | inhibition at 75 g/ha [9] | inhibition at 75 g/ha [10]

CC(C)[C@]12C[C@@H](OCc3ccc(Cl)cc3Cl)[C@](C)(C[C@@H]1Br)O2 [1-717, (1S,2R,4R,5S)-5-bromo-2-[(2,4-dichlorophenyl)methoxy]-1-methyl-4-isopropyl-7-oxabicyclo[2.2.1]heptane]
≥ 80%: pest or weed control at 1200 g/ha [1] | pest or weed control at 1200 g/ha [2] | pest or weed control at 1200 g/ha [3] | inhibition at 1200 g/ha [4] | inhibition at 1200 g/ha [5] | inhibition at 1200 g/ha [6] | inhibition at 1200 g/ha [7] | inhibition at 75 g/ha [8] | inhibition at 75 g/ha [9] | inhibition at 75 g/ha [10]

CCC1C[C@]2(C)O[C@@]1(C(C)C)C[C@H]2OCc1ccccc1F (stereo partly drawn) [1-126, (1R,4S,5R)-2-ethyl-5-[(2-fluorobenzyl)oxy]-1-isopropyl-4-methyl-7-oxabicyclo[2.2.1]heptane]
≥ 80%: pest or weed control at 1200 g/ha [1] | pest or weed control at 1200 g/ha [2] | pest or weed control at 1200 g/ha [3] | inhibition at 1200 g/ha [4] | inhibition at 1200 g/ha [7] | inhibition at 75 g/ha [8] | inhibition at 75 g/ha [9] | inhibition at 75 g/ha [10]

Cc1ccccc1CO[C@@H]1C[C@]2(C(C)C)O[C@@]1(C)C[C@@H]2Br [1-16, (1S,2R,4R,5S)-5-bromo-1-methyl-2-[(2-methylphenyl)methoxy]-4-isopropyl-7-oxabicyclo[2.2.1]heptane]
≥ 80%: pest or weed control at 1200 g/ha [1] | pest or weed control at 1200 g/ha [2] | pest or weed control at 1200 g/ha [3] | inhibition at 1200 g/ha [4] | inhibition at 1200 g/ha [7] | inhibition at 75 g/ha [8] | inhibition at 75 g/ha [9] | inhibition at 75 g/ha [10]

Cc1cccc(CO[C@@H]2C[C@]3(C(C)C)O[C@@]2(C)C[C@@H]3Br)c1 [1-680, (1S,2R,4R,5S)-5-bromo-1-methyl-2-[(3-methylphenyl)methoxy]-4-isopropyl-7-oxabicyclo[2.2.1]heptane]
≥ 80%: pest or weed control at 1200 g/ha [1] | pest or weed control at 1200 g/ha [2] | pest or weed control at 1200 g/ha [3] | inhibition at 1200 g/ha [4] | inhibition at 1200 g/ha [5] | inhibition at 1200 g/ha [6] | inhibition at 1200 g/ha [7] | inhibition at 75 g/ha [8] | inhibition at 75 g/ha [10]

CC(C)[C@]12C[C@@H](OCc3ccc(Cl)cc3)[C@](C)(C[C@@H]1Br)O2 [1-693, (1S,2R,4R,5S)-5-bromo-2-[(4-chlorophenyl)methoxy]-1-methyl-4-isopropyl-7-oxabicyclo[2.2.1]heptane]
≥ 80%: pest or weed control at 1200 g/ha [1] | pest or weed control at 1200 g/ha [2] | pest or weed control at 1200 g/ha [3] | inhibition at 1200 g/ha [4] | inhibition at 1200 g/ha [5] | inhibition at 1200 g/ha [6] | inhibition at 1200 g/ha [7] | inhibition at 75 g/ha [8] | inhibition at 75 g/ha [10]

CCOC(C)O[C@H]1C[C@]2(C)O[C@@]1(C(C)C)C[C@H]2OCc1ccccc1C (stereo partly drawn) [1-208, (1R,2S,4S,5R)-2-(1-ethoxyethoxy)-1-isopropyl-4-methyl-5-((2-methylbenzyl)oxy)-7-oxabicyclo[2.2.1]heptane]
≥ 80%: pest or weed control at 1200 g/ha [1] | pest or weed control at 1200 g/ha [2] | pest or weed control at 1200 g/ha [3] | inhibition at 1200 g/ha [4] | inhibition at 1200 g/ha [6] | inhibition at 1200 g/ha [7] | inhibition at 75 g/ha [8] | inhibition at 75 g/ha [10]

CC(C)[C@]12C[C@@H](OCc3cc(F)ccc3F)[C@](C)(CC1=O)O2 [2-18, (1R,4S,5R)-5-((2,5-difluorobenzyl)oxy)-1-isopropyl-4-methyl-7-oxabicyclo[2.2.1]heptan-2-one]
≥ 80%: pest or weed control at 1200 g/ha [1] | pest or weed control at 1200 g/ha [2] | inhibition at 1200 g/ha [4] | inhibition at 1200 g/ha [5] | inhibition at 1200 g/ha [6] | inhibition at 1200 g/ha [7] | inhibition at 75 g/ha [8] | inhibition at 75 g/ha [9] | inhibition at 75 g/ha [10]

COC1(OC)C[C@]2(C)O[C@@]1(C(C)C)C[C@H]2OCc1ccccc1F [1-935, (1R,4S,5R)-5-((2-fluorobenzyl)oxy)-1-isopropyl-2,2-dimethoxy-4-methyl-7-oxabicyclo[2.2.1]heptane]
≥ 80%: pest or weed control at 1200 g/ha [1] | pest or weed control at 1200 g/ha [2] | pest or weed control at 1200 g/ha [3] | inhibition at 1200 g/ha [4] | inhibition at 1200 g/ha [5] | inhibition at 1200 g/ha [6] | inhibition at 1200 g/ha [7] | inhibition at 75 g/ha [8]

CC(C)[C@]12C[C@@H](OCc3ccc(F)cc3)[C@](C)(CC1=O)O2 [2-349, (1R,4S,5R)-5-((4-fluorobenzyl)oxy)-1-isopropyl-4-methyl-7-oxabicyclo[2.2.1]heptan-2-one]
≥ 80%: pest or weed control at 1200 g/ha [1] | pest or weed control at 1200 g/ha [2] | pest or weed control at 1200 g/ha [3] | inhibition at 1200 g/ha [4] | inhibition at 1200 g/ha [5] | inhibition at 1200 g/ha [7] | inhibition at 75 g/ha [8] | inhibition at 75 g/ha [9] | inhibition at 75 g/ha [10]

CCC1C[C@]2(C)O[C@@]1(C(C)C)C[C@H]2OCc1ccccc1C (stereo partly drawn) [1-123, (1R,4S,5R)-2-ethyl-1-isopropyl-4-methyl-5-((2-methylbenzyl)oxy)-7-oxabicyclo[2.2.1]heptane]
≥ 80%: pest or weed control at 1200 g/ha [1] | pest or weed control at 1200 g/ha [3] | inhibition at 1200 g/ha [4] | inhibition at 1200 g/ha [7] | inhibition at 75 g/ha [8] | inhibition at 75 g/ha [9] | inhibition at 75 g/ha [10]

CC(C)[C@]12C[C@@H](OCc3c(Cl)cccc3Cl)[C@](C)(CC1=O)O2 [2-26, (1R,4S,5R)-5-((2,6-dichlorobenzyl)oxy)-1-isopropyl-4-methyl-7-oxabicyclo[2.2.1]heptan-2-one]
≥ 80%: pest or weed control at 1200 g/ha [1] | pest or weed control at 1200 g/ha [2] | pest or weed control at 1200 g/ha [3] | inhibition at 1200 g/ha [4] | inhibition at 1200 g/ha [7] | inhibition at 75 g/ha [8] | inhibition at 75 g/ha [9]

CCOC(C)O[C@H]1C[C@]2(C)O[C@@]1(C(C)C)C[C@H]2OCc1c(F)cccc1F (stereo partly drawn) [1-223, (1S,2R,4R,5S)-2-((2,6-difluorobenzyl)oxy)-5-(1-ethoxyethoxy)-4-isopropyl-1-methyl-7-oxabicyclo[2.2.1]heptane]
≥ 80%: pest or weed control at 1200 g/ha [1] | pest or weed control at 1200 g/ha [2] | pest or weed control at 1200 g/ha [3] | inhibition at 1200 g/ha [4] | inhibition at 1200 g/ha [6] | inhibition at 1200 g/ha [7] | inhibition at 75 g/ha [8] | inhibition at 75 g/ha [10]

CC(C)[C@]12C[C@@H](OCc3ccccc3F)[C@](C)(C[C@@H]1OS(=O)(=O)C(F)(F)F)O2 [1-525, (1R,2S,4S,5R)-5-((2-fluorobenzyl)oxy)-1-isopropyl-4-methyl-7-oxabicyclo[2.2.1]heptan-2-yl trifluoromethanesulfonate]
≥ 80%: pest or weed control at 1200 g/ha [1] | pest or weed control at 1200 g/ha [2] | pest or weed control at 1200 g/ha [3] | inhibition at 1200 g/ha [4] | inhibition at 1200 g/ha [7] | inhibition at 75 g/ha [8] | inhibition at 75 g/ha [9] | inhibition at 75 g/ha [10]
